These results are taken from PubChem BioAssay (NCI).

Molecules are shown by their SMILES. Several values for one entry are separate records, joined by “and”; a condition that tells them apart may be missing. Identical values can stand only once.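 Test compounds were applied to cells in 96-well plates for 48 hours at 5 doses. GI50: concentration for 50% inhibition of growth. TGI: total growth inhibition.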

Some test systems named below: HOP-92 NSCLC; SK-MEL-28 melanoma; OVCAR-4 ovarian; SK-MEL-5 melanoma; MOLT-4 leukemia; M14 melanoma; SK-OV-3 ovarian; HCC-2998 colon; HOP-62 NSCLC; ACHN renal.
Test in all cases: NCI tumour cell line growth inhibition, 48 h

Consider `O=C(Nc1cccc(C(F)(F)F)c1)c1cc(Br)cc(Br)c1O`, for which the TGI in the test with HOP-92 NSCLC was 5.82 µM; in the test with SK-MEL-28 melanoma, more than 10 µM; in the test with OVCAR-4 ovarian it was more than 10 µM; with SK-MEL-5 melanoma, 3.58 µM; in the test on MOLT-4 leukemia, more than 10 µM; in the test on M14 melanoma, more than 10 µM. The TGI is 9.38 µM in the test on SK-OV-3 ovarian, more than 10 µM in the test with HCC-2998 colon, more than 10 µM in the test with HOP-62 NSCLC and 9.29 µM in the test on ACHN renal.
For the compound `COC(=O)[C@]12CC[C@@H](C)[C@H](C)[C@@H]1C1=CC[C@@H]3[C@@]4(C)CC(=O)[C@H](OC(=O)c5ccco5)[C@@]5(C)COC(=C45)C[C@@]3(C)[C@]1(C)CC2`, the GI50 with HOP-92 NSCLC was 14.9 µM; in the test with SK-MEL-28 melanoma, 0.579 µM; in the test on OVCAR-4 ovarian, 2.12 µM; in the test with SK-MEL-5 melanoma, 0.414 µM; with MOLT-4 leukemia, 0.669 µM; with M14 melanoma, 0.654 µM. In addition, the values for the GI50 with SK-OV-3 ovarian, in the test with HOP-62 NSCLC and with ACHN renal were 4.67 µM, 17.6 µM and 2.94 µM, respectively. The TGI is more than 100 µM in the test with HOP-92 NSCLC; more than 100 µM with SK-MEL-28 melanoma; more than 100 µM with OVCAR-4 ovarian; 2.54 µM with SK-MEL-5 melanoma; more than 100 µM with MOLT-4 leukemia; more than 100 µM in the test on M14 melanoma. Further, the TGI in the test with SK-OV-3 ovarian, in the test on HCC-2998 colon, in the test with HOP-62 NSCLC and in the test on ACHN renal was more than 100 µM in each case.
For `CC1(C)[C@@H](OC(N)=O)C=C[C@]2(C=O)[C@H]3CC[C@]4(C)[C@@H](c5ccc(=O)oc5)[C@@H](Cl)C[C@]4(O)C3=CC[C@@H]12`, the GI50 with HOP-92 NSCLC is 0.0057 µM; in the test on SK-MEL-28 melanoma it was 0.00642 µM; in the test with OVCAR-4 ovarian, 0.004 µM; in the test on SK-MEL-5 melanoma it was 0.00458 µM; with MOLT-4 leukemia, less than 0.0025 µM; in the test on M14 melanoma, 0.00544 µM. The GI50 is 0.00653 µM in the test with SK-OV-3 ovarian, 0.0081 µM with HCC-2998 colon, 0.00331 µM with HOP-62 NSCLC and less than 0.0025 µM in the test on ACHN renal. The TGI in the test on HOP-92 NSCLC stood at 0.0165 µM; in the test with SK-MEL-28 melanoma, 0.0156 µM; with OVCAR-4 ovarian it was 0.0121 µM; in the test with SK-MEL-5 melanoma it was 0.00903 µM; in the test on MOLT-4 leukemia, 0.00724 µM; in the test on M14 melanoma it was 0.0124 µM. Besides, the TGI in the test on SK-OV-3 ovarian was found to be 0.0194 µM; with HCC-2998 colon it was 0.0304 µM; with HOP-62 NSCLC, 0.00699 µM; in the test on ACHN renal, 0.00649 µM.
As for `COc1ccc(-c2c(N)n[nH]c2-c2cc(OC)c(OC)c(OC)c2)cc1`, the GI50 with HOP-92 NSCLC is 0.499 µM; with SK-MEL-28 melanoma, 5.57 µM; in the test on OVCAR-4 ovarian it was 1.62 µM; with SK-MEL-5 melanoma, 0.113 µM; in the test on MOLT-4 leukemia, 0.275 µM; in the test with M14 melanoma, 0.135 µM. The GI50 in the test with SK-OV-3 ovarian was 0.211 µM; in the test with HCC-2998 colon it was 0.286 µM; in the test on HOP-62 NSCLC, 0.387 µM; in the test on ACHN renal, 2.03 µM. In addition, the TGI with HOP-92 NSCLC is more than 100 µM; with SK-MEL-28 melanoma, more than 100 µM; in the test with OVCAR-4 ovarian it was more than 100 µM; with SK-MEL-5 melanoma, 10 µM; in the test with MOLT-4 leukemia it was more than 100 µM; in the test with M14 melanoma it was more than 100 µM. In addition, the TGI is 52.4 µM in the test on SK-OV-3 ovarian, 19.8 µM with HCC-2998 colon, more than 100 µM with HOP-62 NSCLC and more than 100 µM in the test on ACHN renal.
On to `NS(=O)(=O)c1ccc(NC(=O)Nc2ccccc2F)cc1`, for which the TGI with HOP-92 NSCLC, with SK-MEL-28 melanoma, in the test on OVCAR-4 ovarian, in the test with SK-MEL-5 melanoma, with MOLT-4 leukemia and in the test on M14 melanoma was more than 100 µM throughout. Also, the TGI in the test on SK-OV-3 ovarian, in the test on HCC-2998 colon, with HOP-62 NSCLC and in the test with ACHN renal was more than 100 µM each time.
In the case of `O=C(O)C(=O)CBr`, the GI50 in the test with HOP-92 NSCLC is > 33.2 µM and 19.1 µM; with SK-MEL-28 melanoma, > 42.4 µM and 16.6 µM; in the test with OVCAR-4 ovarian, 17.5 µM and 17.4 µM; with SK-MEL-5 melanoma, > 100 µM and 65.8 µM; in the test on MOLT-4 leukemia, > 40.6 µM and 21.9 µM; in the test with M14 melanoma it was > 89.1 µM and 44 µM. For the same compound, the GI50 with SK-OV-3 ovarian was > 100 µM and 19.7 µM; in the test on HCC-2998 colon it was > 100 µM and 19.3 µM; with HOP-62 NSCLC, > 100 µM and 19.3 µM; in the test on ACHN renal, > 35.8 µM and 16.3 µM. The TGI in the test on HOP-92 NSCLC is > 49.9 µM and 34 µM; in the test on SK-MEL-28 melanoma it was > 62.8 µM and 32.2 µM; in the test with OVCAR-4 ovarian it was 31.4 µM; in the test on SK-MEL-5 melanoma it was more than 100 µM; in the test on MOLT-4 leukemia, > 72.9 µM and 51.9 µM; with M14 melanoma it was more than 100 µM. Besides, the TGI is > 100 µM and 36 µM with SK-OV-3 ovarian; > 100 µM and 36.3 µM with HCC-2998 colon; > 100 µM and 38.1 µM in the test on HOP-62 NSCLC; > 53.9 µM and 31.6 µM with ACHN renal.
Take `O=[As]c1ccc(C(=O)c2ccc(Oc3ccccc3)cc2)cc1` (centres undefined): the GI50 with HOP-92 NSCLC is 0.159 µM; in the test on SK-MEL-28 melanoma, 0.0416 µM; in the test on OVCAR-4 ovarian it was 0.0469 µM; in the test with SK-MEL-5 melanoma it was 0.0539 µM; with MOLT-4 leukemia, 0.0333 µM; in the test on M14 melanoma, 0.0695 µM. For the same compound, the GI50 was 0.12 µM in the test on SK-OV-3 ovarian, 0.0727 µM in the test with HCC-2998 colon, 0.0356 µM with HOP-62 NSCLC and 0.0358 µM with ACHN renal. In addition, the TGI came out at 0.361 µM with HOP-92 NSCLC; 0.153 µM in the test with SK-MEL-28 melanoma; 0.171 µM in the test with OVCAR-4 ovarian; 0.174 µM in the test with SK-MEL-5 melanoma; 0.19 µM in the test on MOLT-4 leukemia; 0.202 µM in the test on M14 melanoma. Moreover, the TGI in the test on SK-OV-3 ovarian is 0.249 µM; in the test on HCC-2998 colon it was 0.213 µM; in the test on HOP-62 NSCLC it was 0.105 µM; in the test with ACHN renal, 0.114 µM.
For `COc1ccc(C(=O)O/N=C2/CCC/C2=C\c2ccccc2)cc1`, the TGI in the test with HOP-92 NSCLC, in the test with SK-MEL-28 melanoma, with OVCAR-4 ovarian, with SK-MEL-5 melanoma, in the test with MOLT-4 leukemia and in the test with M14 melanoma was more than 100 µM each time. The TGI in the test with SK-OV-3 ovarian, with HCC-2998 colon, in the test with HOP-62 NSCLC and in the test with ACHN renal was more than 100 µM in each case.
As to `O=C1c2ccccc2-c2c1c1ccccc1c(=O)n2-c1ccccc1`, the TGI in the test on HOP-92 NSCLC was more than 50.3 µM; in the test on SK-MEL-28 melanoma it was more than 100 µM; with OVCAR-4 ovarian, 19.2 µM; with SK-MEL-5 melanoma, 52 µM; in the test with MOLT-4 leukemia it was more than 100 µM; in the test with M14 melanoma it was more than 100 µM. Further, the TGI with SK-OV-3 ovarian is 26.4 µM; in the test with HCC-2998 colon, more than 100 µM; in the test with HOP-62 NSCLC it was 14.9 µM; with ACHN renal, 17.1 µM.
